Paper PMC12649549, “Sequence Permutation Generated Lysine and Tryptophan-Rich Antimicrobial Peptides with Enhanced Therapeutic Index” (Antibiotics, 2025)

Assay: Calcein dye leakage assay, POPC:Cholesterol LUVs
Conditions: POPC:Cholesterol (2:1) LUVs, final peptide concentration 2 μg/mL; n = 3
Protocol: Large unilamellar vesicles (LUVs) containing POPC:LPS (12.5:1, mol/mol) and POPC:cholesterol (2:1, mol/mol) were prepared using the extrusion method and an Avanti small-volume extrusion apparatus(Avanti Polar Lipids). To prepare the vesicles, phospholipids were dissolved in a chloroform/methanol mixture (4:1, v/v), evaporated using nitrogen gas, and suspended in PBS buffer. The lipid suspensions underwent six to eight cycles of freezing and thawing before being extruded ten times through a […] pore size polycarbonate filter, followed by ten times through a […] filter. Calcein-filled LUVs were also prepared by loading calcein-containing buffer (70 mM calcein and 10 mM Tris at pH 7.4) into a Sephadex G-75 column loaded with iso-osmotic buffer (100 mM sodium chloride and 10 mM Tris) to remove unencapsulated calcein. The phospholipid content of the vesicles was determined by assessing inorganic phosphate using the ammonium ferrothiocyanate method described by John Charles Marshall Stewart.
Calcein leakage induced by peptides was measured using a Perkin-Elmer luminescence spectrofluorimeter with excitation and emission wavelengths of 496 and 515 nm, respectively. Calcein-entrapped LUVs were diluted to a concentration of 10 µM. The maximum degree of leakage was induced by 100 mg/mL Triton X-100.
The degree of leakage induced by various peptide concentrations was calculated using the formula: Leakage % = ((F − F0)/(Fr − F0)) × 100%, where F0 and Fr represent the initial fluorescence intensities observed without peptide and after adding 100 mg/mL Triton X-100, respectively.
With Ac-KKWRKWLKWLAKK-NH2 [W5K/A9W] the calcein leakage was “above 60%”. In the case of Ac-WRKWLKWLAKKKK-NH2 [Peptide W5K02], the calcein leakage is reported as “above 60%”. In the case of Ac-KKKWRKWLKWLAK-NH2 [Peptide W5K12], the calcein leakage is reported as “above 60%”. In the case of Ac-KWRKWLKWLAKKK-NH2 [Peptide W5K01], the calcein leakage is reported as “above 60%”. In the case of Ac-KKKKWRKWLKWLA-NH2 [Peptide W5K11], the calcein leakage is reported as “above 60%”.
